Results reported in PubChem BioAssay AID1918933 (Molecular Pharmacology Branch, DTP, NCI, 2023).

System: 186277-243-T-J2-PDC complex spheroid viability
Experiment: Anticancer human tumor 186277-243-T-J2-PDC patient-derived colon adenocarcinoma cell line growth inhibition
Conditions: for IC50: curve of first compound; for viability, T/C: stronger effect = lower value
In short: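 Complex spheroids of tumor cells with HUVEC and human MSCs, exposed to iadademstat combined with other agents. Each agent tested in half-log steps from near clinical Cmax (else 10 microM top), DMSO ≤0.25%.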

[1] = second compound 0.1 µM, first compound 0.00316 µM
[2] = second compound 0.1 µM, first compound 0.01 µM
[3] = second compound 0.1 µM, first compound 0.0316 µM
[4] = second compound 0.1 µM, first compound 0.1 µM
[5] = second compound 0.1 µM, first compound 0.316 µM
[6] = second compound 0.1 µM, first compound 1 µM
[7] = second compound 0.316 µM, first compound 0.00316 µM
[8] = second compound 0.316 µM, first compound 0.01 µM
[9] = second compound 0.316 µM, first compound 0.0316 µM
[10] = second compound 0.316 µM, first compound 0.1 µM
[11] = second compound 0.316 µM, first compound 0.316 µM
[12] = second compound 0.316 µM, first compound 1 µM
[13] = second compound 1 µM, first compound 0.00316 µM
[14] = second compound 1 µM, first compound 0.01 µM
[15] = second compound 1 µM, first compound 0.0316 µM
[16] = second compound 1 µM, first compound 0.1 µM
[17] = second compound 1 µM, first compound 0.316 µM
[18] = second compound 1 µM, first compound 1 µM
[19] = second compound 3.16 µM, first compound 0.00316 µM
[20] = second compound 3.16 µM, first compound 0.01 µM
[21] = second compound 3.16 µM, first compound 0.0316 µM
[22] = second compound 3.16 µM, first compound 0.1 µM
[23] = second compound 3.16 µM, first compound 0.316 µM
[24] = second compound 3.16 µM, first compound 1 µM
[25] = second compound 10 µM, first compound 0.00316 µM
[26] = second compound 10 µM, first compound 0.01 µM
[27] = second compound 10 µM, first compound 0.0316 µM
[28] = second compound 10 µM, first compound 0.1 µM
[29] = second compound 10 µM, first compound 0.316 µM
[30] = second compound 10 µM, first compound 1 µM
[31] = second compound 0.1 µM, first compound 0.00949 µM
[32] = second compound 0.1 µM, first compound 0.03 µM
[33] = second compound 0.1 µM, first compound 0.0949 µM
[34] = second compound 0.1 µM, first compound 0.3 µM
[35] = second compound 0.316 µM, first compound 0.00949 µM
[36] = second compound 0.316 µM, first compound 0.03 µM
[37] = second compound 0.316 µM, first compound 0.0949 µM
[38] = second compound 0.316 µM, first compound 0.3 µM
[39] = second compound 1 µM, first compound 0.00949 µM
[40] = second compound 1 µM, first compound 0.03 µM
[41] = second compound 1 µM, first compound 0.0949 µM
[42] = second compound 1 µM, first compound 0.3 µM
[43] = second compound 3.16 µM, first compound 0.00949 µM
[44] = second compound 3.16 µM, first compound 0.03 µM
[45] = second compound 3.16 µM, first compound 0.0949 µM
[46] = second compound 3.16 µM, first compound 0.3 µM
[47] = second compound 10 µM, first compound 0.00949 µM
[48] = second compound 10 µM, first compound 0.03 µM
[49] = second compound 10 µM, first compound 0.0949 µM
[50] = second compound 10 µM, first compound 0.3 µM
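Also: 7 day exposure to compounds.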
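For viability, T/C in this document: 100% = DMSO vehicle control viability.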

For CC1COCCN1c1cc(-c2ccnn2C)c2ccnc(-c3ccn[nH]3)c2n1 (stereo not given) + NC1CC1c1ccc(-c2cccc(O)c2)cc1, the IC50 (second compound 0.1 µM) was < 3.16 nM, the IC50 (second compound 0.316 µM) was < 3.16 nM and the IC50 (second compound 1 µM) was < 3.16 nM. For the same compound, the IC50 (second compound 3.16 µM) was < 3.16 nM, the IC50 (second compound 10 µM) was < 3.16 nM and the viability, T/C [1] was 20.3%. The viability, T/C [2] was 15.9%, the viability, T/C [3] was 9.71% and the viability, T/C [4] was 8.39%. The viability, T/C [5] was 9.56%, the viability, T/C [6] was 6.55% and the viability, T/C [7] was 19.9%. It also gave a viability, T/C [8] of 16.7%, a viability, T/C [9] of 10.2% and a viability, T/C [10] of 8.74%. The viability, T/C [11] was 8.51%, the viability, T/C [12] was 6.53% and the viability, T/C [13] was 20.7%. It also gave a viability, T/C [14] of 15.4%, a viability, T/C [15] of 10.2% and a viability, T/C [16] of 7.9%. The viability, T/C [17] was 8.7%, the viability, T/C [18] was 5.94% and the viability, T/C [19] was 22.6%. The viability, T/C [20] was 17.3%, the viability, T/C [21] was 10.9% and the viability, T/C [22] was 8.9%. For the same compound, the viability, T/C [23] was 9.05%, the viability, T/C [24] was 6.86% and the viability, T/C [25] was 18%. For the same compound, the viability, T/C [26] was 15.5%, the viability, T/C [27] was 10.1% and the viability, T/C [28] was 8.33%. For the same compound, the viability, T/C [29] was 8.45% and the viability, T/C [30] was 7.35%.
Work on CC1COCCN1c1cc(C2(S(C)(=N)=O)CC2)nc(-c2ccnc3[nH]ccc23)n1 (stereo not given) + NC1CC1c1ccc(-c2cccc(O)c2)cc1 yielded an IC50 (second compound 0.1 µM) of 1060 nM, an IC50 (second compound 0.316 µM) of 1140 nM and an IC50 (second compound 1 µM) of 1270 nM. It also gave an IC50 (second compound 3.16 µM) of 1190 nM, an IC50 (second compound 10 µM) of 872 nM and a viability, T/C [3] of 102%. The viability, T/C [4] was 99.8%, the viability, T/C [5] was 99.6% and the viability, T/C [6] was 52.1%. It also gave a viability, T/C (second compound 0.1 µM, first compound 3.16 µM) of 9.5%, a viability, T/C (second compound 0.1 µM, first compound 10 µM) of 5.47% and a viability, T/C [9] of 95.4%. The viability, T/C [10] was 97.8%, the viability, T/C [11] was 92.2% and the viability, T/C [12] was 55%. For the same compound, the viability, T/C (second compound 0.316 µM, first compound 3.16 µM) was 10.5%, the viability, T/C (second compound 0.316 µM, first compound 10 µM) was 5.49% and the viability, T/C [15] was 108%. It also gave a viability, T/C [16] of 108%, a viability, T/C [17] of 105% and a viability, T/C [18] of 59.5%. It also gave a viability, T/C (second compound 1 µM, first compound 3.16 µM) of 12.5%, a viability, T/C (second compound 1 µM, first compound 10 µM) of 5.36% and a viability, T/C [21] of 104%. For the same compound, the viability, T/C [22] was 104%, the viability, T/C [23] was 109% and the viability, T/C [24] was 57.5%. The viability, T/C (second compound 3.16 µM, first compound 3.16 µM) was 11.6%, the viability, T/C (second compound 3.16 µM, first compound 10 µM) was 6.19% and the viability, T/C [27] was 106%. The viability, T/C [28] was 89.6%, the viability, T/C [29] was 92.7% and the viability, T/C [30] was 44.3%. For the same compound, the viability, T/C (second compound 10 µM, first compound 3.16 µM) was 8% and the viability, T/C (second compound 10 µM, first compound 10 µM) was 4.85%.
Compound CCN(c1cc(-c2ccc(CN3CCOCC3)cc2)cc(C(=O)NCc2c(C)cc(C)[nH]c2=O)c1C)C1CCOCC1 + NC1CC1c1ccc(-c2cccc(O)c2)cc1 has an IC50 (second compound 0.1 µM) of 2220 nM, an IC50 (second compound 0.316 µM) of 2280 nM and an IC50 (second compound 1 µM) of 2190 nM. It also gave an IC50 (second compound 3.16 µM) of 2220 nM, an IC50 (second compound 10 µM) of 2010 nM and a viability, T/C [31] of 92%. The viability, T/C [32] was 113%, the viability, T/C [33] was 113% and the viability, T/C [34] was 112%. It also gave a viability, T/C (second compound 0.1 µM, first compound 0.949 µM) of 123%, a viability, T/C (second compound 0.1 µM, first compound 3 µM) of 28.4% and a viability, T/C [35] of 107%. It also gave a viability, T/C [36] of 113%, a viability, T/C [37] of 129% and a viability, T/C [38] of 120%. The viability, T/C (second compound 0.316 µM, first compound 0.949 µM) was 120%, the viability, T/C (second compound 0.316 µM, first compound 3 µM) was 28.6% and the viability, T/C [39] was 104%. For the same compound, the viability, T/C [40] was 111%, the viability, T/C [41] was 121% and the viability, T/C [42] was 116%. It also gave a viability, T/C (second compound 1 µM, first compound 0.949 µM) of 120%, a viability, T/C (second compound 1 µM, first compound 3 µM) of 25.8% and a viability, T/C [43] of 106%. The viability, T/C [44] was 113%, the viability, T/C [45] was 111% and the viability, T/C [46] was 108%. The viability, T/C (second compound 3.16 µM, first compound 0.949 µM) was 124%, the viability, T/C (second compound 3.16 µM, first compound 3 µM) was 27.8% and the viability, T/C [47] was 100%. The viability, T/C [48] was 99.7%, the viability, T/C [49] was 88.4% and the viability, T/C [50] was 107%. For the same compound, the viability, T/C (second compound 10 µM, first compound 0.949 µM) was 103% and the viability, T/C (second compound 10 µM, first compound 3 µM) was 23.5%.
Work on Nc1ncn(C2CC(O)C(CO)S2)c(=O)n1 (stereo not given) + NC1CC1c1ccc(-c2cccc(O)c2)cc1 yielded an IC50 (second compound 0.1 µM) of 105 nM, an IC50 (second compound 0.316 µM) of 88.8 nM and an IC50 (second compound 1 µM) of 91.4 nM. It also gave an IC50 (second compound 3.16 µM) of 97.4 nM, an IC50 (second compound 10 µM) of 79.5 nM and a viability, T/C (second compound 0.1 µM, first compound 0.000949 µM) of 113%. The viability, T/C (second compound 0.1 µM, first compound 0.003 µM) was 123%, the viability, T/C [31] was 125% and the viability, T/C [32] was 143%. It also gave a viability, T/C [33] of 53.8%, a viability, T/C [34] of 10.9% and a viability, T/C (second compound 0.316 µM, first compound 0.000949 µM) of 103%. For the same compound, the viability, T/C (second compound 0.316 µM, first compound 0.003 µM) was 119%, the viability, T/C [35] was 110% and the viability, T/C [36] was 129%. For the same compound, the viability, T/C [37] was 46%, the viability, T/C [38] was 9.74% and the viability, T/C (second compound 1 µM, first compound 0.000949 µM) was 102%. The viability, T/C (second compound 1 µM, first compound 0.003 µM) was 106%, the viability, T/C [39] was 130% and the viability, T/C [40] was 128%. The viability, T/C [41] was 47.7%, the viability, T/C [42] was 10.7% and the viability, T/C (second compound 3.16 µM, first compound 0.000949 µM) was 113%. For the same compound, the viability, T/C (second compound 3.16 µM, first compound 0.003 µM) was 111%, the viability, T/C [43] was 105% and the viability, T/C [44] was 137%. It also gave a viability, T/C [45] of 50.9%, a viability, T/C [46] of 10.3% and a viability, T/C (second compound 10 µM, first compound 0.000949 µM) of 93.8%. For the same compound, the viability, T/C (second compound 10 µM, first compound 0.003 µM) was 94.1%, the viability, T/C [47] was 104% and the viability, T/C [48] was 107%. It also gave a viability, T/C [49] of 41% and a viability, T/C [50] of 8.69%.
For O=C(C=Cn1cnc(-c2cc(C(F)(F)F)cc(C(F)(F)F)c2)n1)NNc1cnccn1 + NC1CC1c1ccc(-c2cccc(O)c2)cc1, the IC50 (second compound 0.1 µM) was 56.5 nM, the IC50 (second compound 0.316 µM) was 57.2 nM and the IC50 (second compound 1 µM) was 60 nM. The IC50 (second compound 3.16 µM) was 58.4 nM, the IC50 (second compound 10 µM) was 52.5 nM and the viability, T/C [1] was 97.5%. For the same compound, the viability, T/C [2] was 96%, the viability, T/C [3] was 84.8% and the viability, T/C [4] was 15.7%. It also gave a viability, T/C [5] of 2.81%, a viability, T/C [6] of 1.29% and a viability, T/C [7] of 104%. It also gave a viability, T/C [8] of 105%, a viability, T/C [9] of 88.3% and a viability, T/C [10] of 13.8%. For the same compound, the viability, T/C [11] was 2.94%, the viability, T/C [12] was 1.28% and the viability, T/C [13] was 104%. For the same compound, the viability, T/C [14] was 106%, the viability, T/C [15] was 93.1% and the viability, T/C [16] was 15.5%. For the same compound, the viability, T/C [17] was 3.14%, the viability, T/C [18] was 1.35% and the viability, T/C [19] was 110%. For the same compound, the viability, T/C [20] was 116%, the viability, T/C [21] was 91% and the viability, T/C [22] was 14%. It also gave a viability, T/C [23] of 2.92%, a viability, T/C [24] of 1.47% and a viability, T/C [25] of 94.1%. It also gave a viability, T/C [26] of 95.2%, a viability, T/C [27] of 78.8% and a viability, T/C [28] of 13.3%. For the same compound, the viability, T/C [29] was 3.41% and the viability, T/C [30] was 1.57%.
